Source: ChEMBL document CHEMBL5325462, “Regioselective synthesis and in vitro cytotoxicity evaluation of 3-thiooxindole derivatives: Tubulin polymerization inhibition and apoptosis inducing studies” (Bioorg Med Chem, 2023)
Calls of active or inactive are those of the source. The calls are words filed in the database; no cut-off is given here.

Tests used:
[1] = system: SK-MEL-28; experiment: Cytotoxicity against human SK-MEL-28 cells assessed as inhibition of cell growth measured after 72 hrs by MTT assay; format: functional, cell-based; details: SK-MEL-28, 72 h
[2] = system: HCT-116; experiment: Induction of apoptosis in human HCT-116 cells assessed as reduction in cell viability at 3.32 to 13.28 uM measured after 48 hrs by phase contrast microscope; format: functional, cell-based; details: dose 3.32-13.28 µM
[3] = system: HCT-116; experiment: Inhibition of colony formation in human HCT-116 cells measured after 14 days; format: functional, cell-based; details: dose 3.32-13.28 µM, time 14.0 day
[4] = system: Cell membrane; experiment: Induction of mitochondrial membrane potential loss in human HCT-116 cells assessed as polarized cells at 3.32 uM incubated for 72 hrs by JC-1 staining based flow cytometry analysis (reference value: 99.6 %); format: subcellular
[5] = system: Cell membrane; experiment: Induction of mitochondrial membrane potential loss in human HCT-116 cells assessed as depolarized cells at 6.64 uM incubated for 72 hrs by JC-1 staining based flow cytometry analysis (reference value: 0.4 %); format: subcellular
[6] = system: HCT-116; experiment: Induction of apoptosis in human HCT-116 cells assessed as viable cells at 13.28 uM incubated for 24 hrs by Annexin V-FITC/PI staining based flow cytometry analysis (Rvb= 99.7%); format: functional; details: read-out: Activity
[7] = system: HCT-116; experiment: Induction of apoptosis in human HCT-116 cells assessed as late apoptotic cells at 13.28 uM incubated for 24 hrs by Annexin V-FITC/PI staining based flow cytometry analysis (Rvb= 0.1%); format: functional
[8] = system: HCT-116; experiment: Induction of apoptosis in human HCT-116 cells assessed as necrotic cells at 3.32 uM incubated for 24 hrs by Annexin V-FITC/PI staining based flow cytometry analysis (Rvb= 0.0%); format: functional
[9] = system: HCT-116; experiment: Cell cycle arrest in human HCT-116 cells assessed as accumulation of cells in sub-G1 phase at 3.32 uM measured after 48 hrs by PI staining based flow cytometry method (reference value: 4.6%); format: functional
[10] = system: HCT-116; experiment: Cell cycle arrest in human HCT-116 cells assessed as accumulation of cells in sub-G1 phase at 13.28 uM measured after 48 hrs by PI staining based flow cytometry method (reference value: 4.6%); format: functional
[11] = system: HCT-116; experiment: Cell cycle arrest in human HCT-116 cells assessed as accumulation of cells in G0/G1 phase at 3.32 uM measured after 48 hrs by PI staining based flow cytometry method (reference value: 79%); format: functional
[12] = system: HCT-116; experiment: Cell cycle arrest in human HCT-116 cells assessed as accumulation of cells in G0/G1 phase at 6.64 uM measured after 48 hrs by PI staining based flow cytometry method (reference value: 79%); format: functional
[13] = system: HCT-116; experiment: Cell cycle arrest in human HCT-116 cells assessed as accumulation of cells in S phase at 3.32 uM measured after 48 hrs by PI staining based flow cytometry method (reference value: 8.8%); format: functional
[14] = system: HCT-116; experiment: Cell cycle arrest in human HCT-116 cells assessed as accumulation of cells in G2/M phase at 13.28 uM measured after 48 hrs by PI staining based flow cytometry method (reference value: 6.7%); format: functional

## CC(C)(C)S(=O)(=O)NCC1(Sc2nc3ccccc3[nH]2)C(=O)N(Cc2ccc(Br)cc2)c2ccccc21 (centres undefined)
[1]
  IC50: 15.3 µM
[2]
  Activity: Active
[3]
  inhibition: Dose-Dependent Effect
[4]
  Activity: 97%
[5]
  Activity: 5.9%
[6]
  viability at 13.28 µM: 4.2%
[7]
  Activity: 84.1%
[8]
  Activity: 0.3%
[9]
  Activity: 24.4%
[10]
  Activity: 32.3%
[11]
  Activity: 52%
[12]
  Activity: 49.2%
[13]
  Activity: 11.7%
[14]
  Activity: 18.4%
